According to patent US20140296337A1, “CNS MODULATORS” (BTG International Limited, priority 2004, published 2014):

Key:
[1] = system: EEG frequency bands (delta, theta activity); details: cited from earlier work
[2] = system: electrical power of four rat brain areas (frontal cortex, hippocampus, striatum, reticular formation); test: Tele-Stereo-EEG: continuous recording of intracerebral field potentials in the freely moving rat; format: in vivo
Source text: Analysis of brain field potentials (“Tele-Stereo-EEG”) has been proven to be a very sensitive tool for the characterization of drug effects on the central nervous system (Dimpfel et al., 1986). After administration of a centrally active drug, quantitative changes in the brain field potentials can be considered as a characteristic fingerprint of that particular drug. “Fingerprints” of more than 100 compounds have been obtained including 8 established drug categories, e.g. analgesics, antidepressants, neuroleptics, stimulants, tranquilizers, sedatives and narcotics. Different dosages of the same drug cause quantitative changes in electrical power. […] Direct comparison with specific reference drugs, or by discriminant analysis with reference to an extensive fingerprint database, permits the detection of any possible similarities with established drugs. In general, “fingerprints” show prominent differences for drugs prescribed for different indications and are similar for drugs with similar indication (Dimpfel 2003). Furthermore, the pattern of EEG changes in the rat is a useful tool in predicting possible changes in the EEG power spectrum in humans.
Five intraperitoneal doses (30 mg/kg, 100 mg/kg, 300 mg/kg, 600 mg/kg and 1000 mg/kg body weight) of sodium (R)-3-hydroxybutyrate (BHB) were investigated using the “Tele-Stereo-EEG” animal model consisting of continuous recording of intracerebral field potentials in the freely moving rat. No effects could be measured using 1 ml/kg of a solution containing 20 mM of Na-bicarbonate (pH 8.4 or pH 12.5) for control purposes. […] Most marked changes were observed within the alpha2 range.
Adult Fisher rats (4-6 month of age and day—night converted, weight about 400 g) were implanted with 4 bipolar concentric steel electrodes using a stereotactic surgical procedure (Paxinos and Watson, 1982). All four electrodes were placed 3 mm lateral within the left hemisphere. Anterior coordinates were 12.2, 5.7, 9.7 and 3.7 mm for frontal cortex, hippocampus, striatum and reticular formation, respectively. A baseplate carrying the electrodes and a 5-pin-plug was fixed to the skull by dental cement attached to 3 steel screws fixed into the skull. Animals were given two weeks for recovery from the surgical procedure. Experiments were performed in compliance with the German Health Authority Guidelines and with local authority approval. EEG signals were recorded from frontal cortex, hippocampus, striatum and reticular formation and were amplified and processed as described previously (see Dimpfel et al., 1986). After automatic artefact rejection, signals were collected in sweeps of 4 s duration and submitted to Fast Fourier transformation. The resulting electrical power spectra were divided into 6 frequency ranges: delta (0.8-4.5 Hz); theta (4.75-6.75 Hz); alpha1 (7.00-9.50 Hz); alpha2 (9.75-12.50 Hz); beta (12.75-18.50 Hz); beta2 (18.75-35.00 Hz). […] In an off-line procedure spectra were averaged to give 15 minute or longer periods for further statistical analysis.
Five dosages of BHB (30, 100, 300, 600 and 1000 mg/kg body weight) (supplied by Solvias AG, CH 4002 Basel, Switzerland, batch No: SO-1058.047.1.120) and a vehicle control (0.9% w/v saline) were administered intraperitoneously to a group of 12 animals using a crossover design with at least 3 drug holidays in between the applications. Additional controls consisted of a 1 ml/kg of a solution containing 20 mM of Na-bicarbonate (adjusted to 8.4 and pH 12.5 obtained by titration with 1N NaOH) were tested to ascertain possible effects due to the alkaline pH of the BHB solution. After a pre-drug period of 45 minutes for baseline recording, drug effects were observed continuously for 300 minutes. Changes of electrical power (μV2W) are expressed as % of the 45 min. pre-drug values. Multivariate statistics were calculated according to Ahrens and Lauter (1974).

[3] = BHB 100 mg/kg i.p. single dose, rat
[4] = BHB 300 mg/kg i.p. single dose, rat

Clc1cccc(Cl)c1N=C1NCCN1 [clonidine]
change of theta activity ([1]; drug down regulating the norepinephrine system (presynaptic adrenergic alpha2 receptor)): increases

CN1[C@@H]2C[C@@H](OC(=O)[C@H](CO)c3ccccc3)C[C@H]1[C@@H]1O[C@@H]12 [scopolamine]
change of delta activity ([1]; drugs affecting the cholinergic system): increase of power

C[C@@H](O)CC(=O)[O-].[Na+] [BHB, sodium (R)-3-hydroxybutyrate]
discriminant analysis of EEG fingerprint (24 variables) ([2]; 6 frequency ranges, 4 brain areas, one time period): close proximity to paroxetine and tramadol
effects on EEG frequencies relative to the saline control ([2]; BHB 30 mg/kg body weight i.p. single dose, rat): no statistically significant effects
duration of EEG effects [2, 3]: 1 to 2 h
statistical significance of EEG changes [2, 3]: not statistically significant
EEG frequency changes (electrical power, % of pre-drug values) ([2]; BHB 100 mg/kg i.p. single dose, rat, all regions, mainly alpha2, less delta): decrease of electrical power
EEG frequency changes (electrical power, % of pre-drug values) [2, 4]: decreases in alpha2 power throughout all brain regions
duration of pattern of EEG changes [2, 4]: two
statistical significance of EEG changes ([2]; BHB 300 mg/kg i.p. single dose, rat, by brain region): statistically significant for the frontal cortex, hippocampus and reticular formation, but not for the striatum
duration of EEG effects ([2]; BHB 600 mg/kg i.p. single dose, rat, generally, except reticular formation): 2 h
statistical significance of EEG changes ([2]; BHB 600 mg/kg i.p. single dose, rat, including first hour within striatum): statistically highly significant
duration of decreases of power in the reticular formation ([2]; BHB 600 mg/kg i.p. single dose, rat): persisted throughout the third hour
EEG frequency changes (electrical power, % of pre-drug values) ([2]; BHB 1000 mg/kg i.p. single dose, rat): more prominent decreases of power lasting into the third hour
statistical significance of EEG changes ([2]; BHB 1000 mg/kg i.p. single dose, rat, even 5th hour within reticular formation): statistically highly significant
duration of decreases of power in the reticular formation ([2]; BHB 1000 mg/kg i.p. single dose, rat, total experimental time): 5 h
similarity of EEG electrical fingerprint to reference drugs ([2]; BHB at a lower dosage, vs galanthamine 3 mg/kg and paroxetine 2 mg/kg): similarity to the “electrical fingerprints” of the acetylcholine esterase inhibitor galanthamine and also the antidepressant paroxetine
statistical significance of EEG changes ([2]; BHB dose levels of 300-1000 mg/kg i.p., rat): statistically highly significant
similarity of EEG profile to reference drugs ([2]; higher dosages of BHB, vs tramadol 10 mg/kg): reminiscent of the effects as observed after the administration of tramadol
